Measured values published in patent US20240101548A1, “HYDROXAMATE COMPOUND, PREPARATION METHOD THEREFOR AND APPLICATION THEREOF” (SHENZHEN CHIPSCREEN BIOSCIENCES CO., LTD., priority 2020, published 2024).

How the values were obtained:
Format in all cases: cell-based, human
[1] = system: IL-10-induced JAK1/TYK2 signal pathway; assay: IL-10-induced JAK1/TYK2 signal pathway STAT3-Luc reporter gene assay in U2OS cells; conditions: Homo sapiens, U2OS, U2OS cells, STAT3-Luc reporter, IL-10 10 ng/mL; read-out: Half inhibition dose (IC50) on IL-10-induced JAK1/TYK2 signal pathway
Source text: Cytokine IL-10 is one of the main members of IL-10 family. The receptor that cytokine IL-10 binds to consists of two kinds of subunits, i.e., IL-10R1 and IL-10R2, which respectively couple with JAK1 and TYK2. After the coupling of IL-10 with its receptor, interaction of phosphorylation occurs between JAK1 and TYK2 to form STAT3 docking site for phosphorylation of STAT3. The phosphorylated STAT3 enters the nucleus and drives the transcription and expression of downstream genes.
The reporter gene plasmid STAT3-Luc Reporter used in the present invention has luciferase expression sequence as the reporter gene, upstream of which is a promoter sequence containing multiple STAT3 binding sites. When phosphorylated STAT3 induced by IL-10 signal pathway binds to the promoter of STAT3-Luc Reporter plasmid, luciferase is transcribed and expressed. The excitation fluorescence catalyzed by Luciferase can be detected after the addition of […] substrate, whose intensity can quantitively reflect the activation level of the signal pathway.
Human osteosarcoma cell line U20S was commercially available from American Type Culture Collection (ATCC), and relevant culture conditions referred to those from ATCC. It was known that such cell line could express IL-10R2, JAK1, TYK2 and STAT3, therefore, by exogenous expression of IL-10R1 gene, a complete IL-10 signal pathway could be established. The human IL-10R1 subunit overexpression plasmid pCMV3-IL10RA-EGFP was constructed by Shanghai Genechem Co., Ltd., and capable of simultaneously expressing enhanced green fluorescent protein. In the subsequent detection and calculation, the signal of green fluorescent protein in the tested sample was used as a reference for transfection efficiency calibration of the luciferase reporter gene signal. Reporter plasmid STAT3-Luc Reporter was commercially available from Ji Man Biotech (Shanghai) Co., Ltd.
X-tremeGENE 9 DNA Transfection Reagent (Roche) was used for the transfection of plasmid DNA into cells, Cell Culture Lysis 5× reagent (Promega) and Luciferase Assay System (Promega) were used in cell lysate preparation and enzyme-substrate reaction for luciferase reporter gene detection. Green fluorescent protein signal and luciferase reporter gene signal were both detected by Tecan Spark™ 10M multimode microplate reader. The inhibition rate of the tested compound on the IL-10 signal pathway reporter gene signal and the half inhibition dose IC50 were both calculated using Microsoft Excel and GraphPad Prism 7.00 software.
U2OS cell line was inoculated in 96-well plate with flat bottom at 5000 cells per well, and cultured overnight at 37° C. and 5% CO2 followed by plasmid transfection. Following the instructions and using X-tremeGENE 9 DNA Transfection Reagent, pCMV3-IL10RA-EGFP and STAT3-Luc Reporter plasmids were co-transfected into the inoculated U2OS cells. After 24 hours of transfection, the tested compound was added respectively for a final concentration of 0, 0.1, 0.3, 1, 3, 10, 30, 100, or 300 nM. After 6 hours of culture at 37° C. and 5% CO2, IL-10 cytokine (Human IL-10 PEPROTECH 200-10-10UG) was added to each well for a final concentration of 10 ng/mL, the well in which neither compound nor cytokine was added was designated as 0% control well. The culture was continued for 24 hours before testing.
Cell lysate was prepared by using Cell Culture Lysis reagent and transferred to 96-well plate with half-well clear bottom. The green fluorescent protein signal value was detected at Ex485/Em520 using Tecan microplate reader, and recorded. After adding to each well the luciferase substrate from Luciferase Assay System, the signal value of luciferase-substrate reaction was immediately detected at 560 nm using Tecan microplate reader, and recorded.
Using Microsoft Excel software, the signal value of luciferase-substrate reaction of each well was calculated and calibrated based on the signal value of green fluorescent protein of each well. […]

[2] = system: IL-2-induced JAK1/JAK3 signal pathway; assay: IL-2-induced proliferation of KHYG-1 cells (JAK1/JAK3 signal); conditions: Homo sapiens; KHYG-1 cell proliferation, IL-2 10 ng/mL, 72 hours; read-out: Inhibition activity IC50 on IL-2-induced JAK1/JAK3 signal pathway
Summary of the method: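 Controls were wells lacking both compound and cytokine (0%) and compound-free IL-2 wells (100%). C50 was calculated from inhibition rates across doses.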

[3] = system: EPO-induced JAK2 signal pathway; assay: EPO-induced proliferation of UT-7 cells (JAK2 signal); conditions: Homo sapiens, UT7; UT-7 cell proliferation, EPO 10 ng/mL, 72 hours; read-out: Inhibition activity IC50 on EPO-induced JAK2 signal pathway
Summary of the method: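 […] was derived from inhibition rates across doses, scaled between wells lacking compound and cytokine (0) and EPO without compound (100), using alamarBlue fluorescence at Ex530/Em590. Compound (final 0-10000 nM) and 10 ng/mL EPO were given to UT-7 cells at 15000 per well for 72 h at 37° C.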

SMILES	IC50 [1]	IC50 [2]	IC50 [3]
CCONC(=O)c1cnc(Nc2nc(C)cs2)cc1Nc1ccc(C2CC2)cc1N(C)S(C)(=O)=O [Example 157, 4-((4-cyclopropyl-2-(N-methylmethanesulfonamido)phenyl)amino)-N-ethoxy-6-((4-methylthiazol-2-yl)amino)nicotinamide]	0.00149 µM	> 10 µM	> 10 µM
CCONC(=O)c1cnc(Nc2cc(C)nc(C)n2)cc1Nc1ccc(C#N)cc1N(C)S(C)(=O)=O [Example 177]	0.0016 µM	> 10 µM	> 10 µM
C#Cc1ccc(Nc2cc(Nc3ccccn3)ncc2C(=O)NOCC)c(N(C)S(C)(=O)=O)c1 [Example 162, N-ethoxy-4-((4-ethynyl-2-(N-methylmethanesulfonamido)phenyl)amino)-6-(pyridin-2-ylamino)nicotinamide]	0.000438 µM	> 10 µM	> 10 µM
Cc1cc(Nc2cc(Nc3ccc(C4CC4)cc3N(C)S(C)(=O)=O)c(C(=O)NOCC(F)(F)F)cn2)nc(C)n1 [Example 118]	0.00128 µM	> 10 µM	> 10 µM
CNC(=O)c1cnc(Nc2ccc(F)cn2)cc1Nc1ccccc1N(C)S(C)(=O)=O [Example 100, 6-((5-fluoropyridin-2-yl)amino)-N-methyl-4-((2-(N-methylmethanesulfonamido)phenyl)amino)nicotinamide]	0.017 µM	> 10 µM	> 10 µM
CONC(=O)c1cnc(NC(=O)C2CC2)cc1Nc1ccc(OCC2CC2)cc1N(C)S(C)(=O)=O [Example 63, 6-(cyclopropylcarboxamido)-4-((4-(cyclopropylmethoxy)-2-(N-methylmethanesulfonamido)phenyl)amino)-N-methoxy nicotinamide]	0.000865 µM	> 10 µM	> 10 µM
CCONC(=O)c1cnc(Nc2cccc(C)n2)cc1Nc1ccc(-c2ccnn2C)cc1OC [Example 222, N-ethoxy-4-((2-methoxy-4-(1-methyl-1H-pyrazol-5-yl)phenyl)amino)-6-((6-methylpyridin-2-yl)amino)nicotinamide]	0.00109 µM	> 10 µM	> 10 µM
CCONC(=O)c1cnc(Nc2cc(C)nc(C)n2)cc1Nc1ccc(-c2ccnn2C)cc1OC [Example 207]	0.00108 µM	> 10 µM	> 10 µM
C#Cc1ccc(Nc2cc(Nc3cccc(F)n3)ncc2C(=O)NOCC)c(N(C)S(C)(=O)=O)c1 [Example 143, N-ethoxy-4-((4-ethynyl-2-(N-methylmethanesulfonamido)phenyl)amino)-6-(6-fluoropyridin-2-ylamino)nicotinamide]	0.000496 µM	> 10 µM	> 10 µM
CCONC(=O)c1cnc(Nc2cc(C)nc(C)n2)cc1Nc1ccc(C)cc1N(C)S(=O)(=O)C1CC1 [Example 175]	0.000839 µM	> 10 µM	> 10 µM
[2H]C([2H])([2H])Oc1c(Nc2cc(Nc3cc(C)nc(C)n3)ncc2C(=O)NOCC)cccc1-c1ncc(F)cn1 [Example 273, 6-((2,6-dimethylpyrimidin-4-yl)amino)-N-ethoxy-4-((3-(5-fluoropyrimidin-2-yl)-2-(methoxy-d3)phenyl)amino)nicotinamide]	0.00219 µM	> 10 µM	> 10 µM
CCONC(=O)c1cnc(Nc2ccc(F)nc2C)cc1Nc1ccc(C2CC2)cc1N(C)S(C)(=O)=O [Example 223, 4-((4-cyclopropyl-2-(N-methylmethanesulfonamido)phenyl)amino)-N-ethoxy-6-((6-fluoro-2-methylpyridin-3-yl)amino)nicotinamide]	0.000172 µM	> 10 µM	> 10 µM
CCONC(=O)c1cnc(Nc2cc(C)nc(C)n2)cc1Nc1ccc(C2CC2)cc1N(C)S(=O)(=O)C1CC1 [Example 189]	0.000825 µM	> 10 µM	> 10 µM
CCONC(=O)c1cnc(NC(=O)C2CC2)cc1Nc1ccc(C2CC2)cc1N(C)S(C)(=O)=O [Example 139, 6-(cyclopropylcarboxamido)-4-((4-cyclopropyl-2-(N-methylmethanesulfonamido)phenyl)amino)-N-ethoxy nicotinamide]	0.0014 µM	> 10 µM	> 10 µM
CCONC(=O)c1cnc(Nc2ccc(F)cn2)cc1Nc1ccc(N2CCOCC2)cc1N(C)S(C)(=O)=O [Example 130]	0.000802 µM	> 10 µM	> 10 µM
CCONC(=O)c1cnc(Nc2cc(C)nc(C)n2)cc1Nc1cc(F)c(C)cc1N(C)S(C)(=O)=O [Example 191, 6-((2,6-dimethylpyrimidin-4-yl)amino)-N-ethoxy-4-((5-fluoro-4-methyl-2-(N-methylmethanesulfonamido)phenyl)amino)nicotinamide]	0.000653 µM	> 10 µM	> 10 µM
CCONC(=O)c1cnc(Nc2ncc(F)cc2F)cc1Nc1cc(F)cc(-c2ncc(F)cn2)c1OC [Example 234, 6-((3,5-difluoropyridin-2-yl)amino)-N-ethoxy-4-((5-fluoro-3-(5-fluoropyrimidin-2-yl)-2-methoxyphenyl)amino)nicotinamide]	0.000368 µM	> 10 µM	> 10 µM
CCONC(=O)c1cnc(Nc2ccnc(C)n2)cc1Nc1cc(F)cc(-c2ncn(C3CC3)n2)c1OC [Example 245, 4-((3-(1-cyclopropyl-1H-1,2,4-triazol-3-yl)-5-fluoro-2-methoxyphenyl)amino)-N-ethoxy-6-((2-methylpyrimidin-4-yl)amino)nicotinamide]	0.00192 µM	> 10 µM	> 10 µM
CONC(=O)c1cnc(NC(=O)C2CC2)cc1Nc1ccc(Cl)cc1N(C)S(C)(=O)=O [Example 79, 4-((4-chloro-2-(N-methylmethanesulfonamido)phenyl)amino)-6-(cyclopropylcarboxamido)-N-methoxy nicotinamide]	0.000889 µM	> 10 µM	> 10 µM
CCONC(=O)c1cnc(Nc2nc(C)cs2)cc1Nc1cc(F)c(C2CC2)cc1N(C)S(C)(=O)=O [Example 170, 4-((4-cyclopropyl-5-fluoro-2-(N-methylmethanesulfonamido)phenyl)amino)-N-ethoxy-6-((4-methylthiazol-2-yl)amino)nicotinamide]	0.0015 µM	> 10 µM	> 10 µM
CCONC(=O)c1cnc(Nc2cccnn2)cc1Nc1ccc(C2CC2)cc1N(C)S(C)(=O)=O [Example 153, 4-((4-cyclopropyl-2-(N-methylmethanesulfonamido)phenyl)amino)-N-ethoxy-6-(pyridazin-3-ylamino)nicotinamide]	0.00151 µM	> 10 µM	> 10 µM
